From patent publication US20240116952A1, “KRAS INHIBITOR AND PHARMACEUTICAL USES THEREOF” (RISEN (SUZHOU) PHARMA TECH CO., LTD., priority 2022, published 2024)
“And” between values parts separate entries of the source, which are not always exact repeats. Equal entries are not always repeated. Where two headings read alike, the source gives them in different places.

Key:
[1] = system: AsPC-1 pancreatic cancer cells; assay: Efficacy study in mouse AsPC-1 CDX model, compounds given orally; type: in vivo, Balb/C nude mice; details: BID; for effect on mouse body weight: given orally; for TGI (%): oral, Compound A1 100 mg/kg for 12 days, Compound 1 126 mg/kg (molar equivalent) for 16 days
Procedure: (§1) Balb/C nude mice, aged 6-8 weeks, were inoculated subcutaneously with 5×10^6 AsPC-1 pancreatic cancer cells, in 0.1 ml PBS. Eleven days post-inoculation, tumor bearing animals were randomized into Vehicle (four mice), Compound A1 (four mice) and Compound 1 (five mice), followed by oral dosing twice daily at 100 mg/kg for Compound A1 and 126 mg/kg for Compound 1 (Table 6). Tumor volume was measured every three days using a caliper, and tumor size was calculated using the formula TV=length×width^2×0.5. Tumor growth inhibition (TGI) was calculated using the given formula TGI=[1−(Vtx_t−Vtx_0)/(Vct_t−Vct_0)]×100%, where Vtx_t means tumor volume in treatment group measured at time point t, Vtx_0 means tumor volume of treatment group measured at time point 0, Vct_t means tumor volume of vehicle group measured at time point t, and Vct_0 means tumor volume of vehicle group measured at time point 0.

[2] = Mouse PK study: blood AUC of compound A1 after oral or intravenous administration; type: in vivo; details: ICR mice, equimolar dose
Procedure: A total 126 ICR mice (male, 30-34 g) were randomly divided into 42 groups with 3 animals/group (oral or intravenous administration). Blood samples were collected at 0.167, 0.5, 1, 2, 4, 6, 8, and 24 hours post-dose for oral group and 0.083, 0.25, 0.5, 1, 2, 4, 6, and 8 hours post-dose for intravenous group. The test compounds were dissolved into vehicle solutions (5% DMSO+5% Solutol+90% 20% SBE-β-CD solvents).
Animals were administered with compound A1 or exemplary test compounds by intravenous bolus administration at 3 mg/kg (equimolar dose to compound A1) and oral administration at 10 mg/kg (equimolar dose to compound A1) after fasted 12 hours, respectively. Post-dose blood samples were collected at preset time point (50 μL/animal/time point), and 20 μL blood was accurately separated into 200 μL eppendorf (EP) tube containing acetonitrile and internal standard. The supernatant was prepared by centrifuging the blood samples at approximately 4° C., 12000 rpm for 5 minutes. All samples were then quickly frozen over dry ice and kept at −60° C. or lower until analysis. The supernatant was analyzed by LC-MS/MS to detect the concentration of test compounds and metabolites.

AsPC-1 cells = assay: Tumor growth inhibition in mouse AsPC-1 CDX model, compounds given parenterally (IP/IV); type: in vivo; details: for TGI (%): 27 days; for tumor growth inhibition compared to vehicle control: FIG. 6
Procedure: as §1
Balb/C nude mice bearing tumors derived from AsPC-1 cells as described previously, were grouped into Vehicle intraperitoneal (IP) (five mice), Compound A1 IP (five mice), Compound A1 intravenous (IV) (three mice), Compound 52 IP (five mice) and Compound 52 IV injections (six mice). All compounds were administered once daily at equal molarity (Compound A1, 6 mg/kg) for 27 days. Tumor volume was measured and calculated as described previously.

[3] = system: GP2D colonrectal cancer cells; type: in vivo; details: for TGI (%): 21 days
Procedure: After Balb/C nude mice (aged 6-8 weeks) were inoculated subcutaneously with 5×10^6 GP2D colonrectal cancer cells, in 0.1 ml PBS, they were grouped 11 days post-inoculation and treated with intraperitoneal injections of the given compounds for 21 days. Note that Compound 52 at 40.3 mg/kg and Compound 53 at 43 mg/kg are molar equivalent to 18 mg/kg of Compound A1. Tumor volume and TGI were measured and calculated as described before (Table 8).
Balb/C nude mice, aged 6-8 weeks, were inoculated subcutaneously with 5×10^6 GP2D colonrectal cancer cells, in 0.1 ml PBS. Eleven days post the inoculation, tumor bearing animals were randomly grouped based on given compounds and vehicle. Compound A1, as positive control, was IP administered at 18 mg/kg qd for 21 days. Compound 52 at 40.3 mg/kg (molar equivalent to 18 mg/kg of Compound A1) was IV administered q3d, and subsequently switched to 27 mg/kg for 21 days. Compound 53 at 43 mg/kg (molar equivalent to 18 mg/kg of Compound A1) was either IV or IP dosed q3d for 21 days (Table 8).

[4] = IP, qd, Compound A1 6 mg/kg, Compound 52 13.44 mg/kg (molar equivalent)
[5] = IP, qd, Compound A1 18 mg/kg, Compound 52 40.3 mg/kg (molar equivalent)

C#Cc1c(F)ccc2cc(O)cc(-c3ncc4c(N5CC6CCC(C5)N6C(=O)OC(C)OC(=O)CCC)nc(OC[C@@]56CCCN5C[C@H](F)C6)nc4c3F)c12 (stereo partly drawn) [Compound 1]
effect on mouse body weight [1]: Neither Compound 1 nor A1 adversely affected mouse body weight | TGI (%) [1]: 53.5% and 53.95%

C#Cc1c(F)ccc2cc(O)cc(-c3ncc4c(N5CC6CCC(C5)N6C(=O)OC(C)OC(=O)CC(C)C)nc(OC[C@@]56CCCN5C[C@H](F)C6)nc4c3F)c12 (stereo partly drawn) [Compound 10]
AUC of A1 increased compared to direct oral administration of A1 [2]: more than 8.5 times

C#Cc1c(F)ccc2cc(OC(=O)OC(COC(=O)CCCCCCCC)COC(=O)CCCCCCCC)cc(-c3ncc4c(N5CC6CCC(C5)N6)nc(OC[C@@]56CCCN5C[C@H](F)C6)nc4c3F)c12 [Compound 52]
TGI (%) (AsPC-1 cells; [4]): 36.12% | TGI (%) (AsPC-1 cells; IV, qd, Compound 52 13.44 mg/kg (molar equivalent to 6 mg/kg A1)): 47.22% | tumor growth inhibition compared to vehicle control (AsPC-1 cells; intraperitoneal administration): significant tumor growth inhibition | tumor growth inhibition compared to vehicle control (AsPC-1 cells; intravenous injection): significant tumor growth inhibition | TGI (%) [3, 5]: 87.1% | body weight of mice ([3]; IV 27 mg/kg once every 3 days): remained normal | TGI (%) ([3]; IV, q3d, 27 mg/kg (molar equivalent to 12 mg/kg A1)): 80.0% | death of recipient animals ([3]; intravenously dosed at 40.3 mg/kg (molar equivalent to 18 mg/kg A1)): 50% | growth inhibition of tumors harboring the KRAS^G12D mutation ([3]; parenterally administered with the dosages of Table 8): significant growth inhibition

C#Cc1c(F)ccc2cc(O)cc(-c3ncc4c(N5CC6CCC(C5)N6)nc(OC[C@@]56CCCN5C[C@H](F)C6)nc4c3F)c12 [Compound A1, reference compound]
TGI (%) (AsPC-1 cells; [4]): 37.27% | animal death observed (footnote D in TGI column) (AsPC-1 cells; IV, qd, Compound A1 6 mg/kg, 3 mice): caused the death of all mice within 24 hours | tumor growth inhibition compared to vehicle control (AsPC-1 cells; intraperitoneal administration): significant tumor growth inhibition | effect on mouse body weight [1]: Neither Compound 1 nor A1 adversely affected mouse body weight | TGI (%) [1]: 9.07% | TGI (%) [3, 5]: 85.0%
